Measurements taken from US20100029604A1, “ANTIBACTERIAL COMBINATION AND ITS USE” (priority 2007, published 2010).
pIC50: −log10 of the molar value. Values after ≈ are worked out from the molar mass of the structure shown. Where two headings read alike, the source gives them in different places.

Legend:
S. aureus PC = assay: Synergy MIC, inhibitor at 4 μg/mL (Example 3); assay type: cell-based, Staphylococcus aureus; conditions: penicillinases (PC-type) of S. aureus (MSSA)
Description: (§1) Stock solutions of the test compounds and control antibiotics were prepared in distilled water according to the NCCLS guidelines [Methods for dilution antimicrobial tests for bacteria that grow aerobically. NCCLS document M7-A5; 2000; vol. 19. National Committee for Clinical Laboratory Standards, Villanova, Pa.]. All drug weights were corrected for salt forms and refer to the pure drug substance.
(§2) All tested strains and Clinical isolates were either purchased from the American Type Culture Collection (ATCC), or from the in-house company culture collection.
(§3) Stock cultures were prepared from broth cultures grown at 35° C. for 18-22 h without agitation and subsequent addition of 5% DMSO (v/v, final concentration) as cryoprotectant and stored frozen in liquid nitrogen. Mueller-Hinton II broth (MHBII) (BBL Cockeysville, Md.) was used for the testing procedure.
(§4) The in vitro activities of the antibiotics were determined by the broth microdilution method and agar dilution technique as recommended by CLSI guidelines. The MIC experiments were performed in duplicate in 96-well microtiter plates using MHB. Serial twofold dilutions of each antibiotic either alone or in combination with a constant amount (4 μg/mL) of a β-lactamase inhibitor were prepared in MHBII broth. A sterile pipette tip was used to mix the contents of each well (one tip was used going from the low to the high concentration in the same column). The bacterial suspension with final inoculum 10^5 CFU/mL was transferred to the test medium containing the antibacterial substances by a multipoint inoculator (Dynatech, Chantilly, Va., USA). The plates were then incubated at 35° C. for 24 h.
(§5) Representative compound of Formula (I) was evaluated against the serine-based Class A β-lactamases including TEM-type, SHV-type extended spectrum β-lactamases (ESBL) and various non-ESBL enzymes of enterobacteriaceae as well as BRO-type enzymes of Moraxella catarrhalis and penicillinases of Staphylococcus aureus.

SHV-1 = SHV-1 (Escherichia coli, UniProt P0AD63); assay: IC50 determination, nitrocefin hydrolysis; assay type: biochemical, E. coli; conditions: Class A β-lactamase, 10 min pre-incubation at 37° C.
SHV-1, sequence (P0AD63 22-286): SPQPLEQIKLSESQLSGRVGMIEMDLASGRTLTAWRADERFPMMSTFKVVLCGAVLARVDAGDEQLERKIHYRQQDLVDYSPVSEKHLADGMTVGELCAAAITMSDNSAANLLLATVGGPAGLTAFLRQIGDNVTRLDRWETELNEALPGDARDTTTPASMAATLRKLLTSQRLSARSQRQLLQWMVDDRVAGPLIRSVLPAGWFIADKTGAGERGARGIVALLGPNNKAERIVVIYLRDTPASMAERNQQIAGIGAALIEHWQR
Description: (§6) A standard test for the production of βlactamase involves use of the chromogenic cephalosporin, nitrocefin.
(§7) Homogeneously purified Class A β-lactamases TEM-1 and SHV-1 from E. coli and Class C enzyme AmpC from Enterobacter Cloaca were employed in the assay.
(§8) Compounds were prepared as 50 mM stocks in DMSO and diluted with buffer P1 (50 mM phosphate, pH 7) to a final concentration of 10% DMSO. All further dilutions were done using P2 (P1 with 10% DMSO). Enzyme and compound dilutions were pre-incubated for 10 min at 37° C. and the reaction started with the addition of pre-warmed (37° C.) nitrocefin (reporter substrate) at a final concentration of […]. The change in absorption at 490 nm was followed at 37° C. for 10 min at 30 sec intervals in a SPECTRAMAX 384 PLUS microplate reader (Molecular Devices, Sunnyvale, Calif.) using 96-well plates. The initial rate was determined and IC50 values were calculated using non-linear regression and sigmoidal dose response analysis with the PRISM 4.0 software (Graphpad Software Inc., San Diego, Calif.). IC50 data is expressed as μM and was calculated from at least two independent experiments.

TEM-1 = TEM-1 (Escherichia coli, UniProt P62593); assay: IC50 determination, nitrocefin hydrolysis; assay type: biochemical, E. coli; conditions: Class A β-lactamase, 10 min pre-incubation at 37° C.
TEM-1, sequence (P62593 24-286 limits assumed): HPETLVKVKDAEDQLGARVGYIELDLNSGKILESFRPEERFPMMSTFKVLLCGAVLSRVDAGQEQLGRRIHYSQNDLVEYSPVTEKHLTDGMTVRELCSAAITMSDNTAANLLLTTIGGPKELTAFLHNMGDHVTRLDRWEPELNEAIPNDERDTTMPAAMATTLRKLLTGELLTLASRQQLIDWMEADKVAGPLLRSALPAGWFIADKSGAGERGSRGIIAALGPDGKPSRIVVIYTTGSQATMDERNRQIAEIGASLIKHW
Description: as §6, §7, §8

[1] = tested on: 55 laboratory strains producing characterized β-lactamases; assay: MIC, whole panel of Example 5 (Tables 5-7); assay type: cell-based; conditions: LK-157 as single agent against the tested strains
Description: The MIC experiments were performed in duplicate in 96-well microtiter plates using CAMHB. Serial twofold dilutions of each antibiotic either alone or in combination with constant concentration ratio of a β-lactamase inhibitor (2:1) were prepared in CAMHB. The bacterial suspension with final inoculum 10^5 CFU/mL was transferred to the test medium containing the antibacterial substances. In each well of a 96-well microtiter plate was combined 50 μL of bacterial inoculum, 50 μL of antibiotic dilutions (or media for determination of the MIC of the antibiotic in the absence of test compound). Each plate included 4 wells with no bacterial inoculum (negative control) and 4 wells with no test compound and no antibiotic (positive control). The plates were incubated at 35° C. for 24 h. Purity check and colony counts on each inoculum suspension was performed to ensure that the final inoculum concentration routinely obtained closely approximates 5×10^5 CFU/mL. In addition the assay is routinely monitored by testing standard antibiotics and ensuring that MIC values are within the recommended ranges for the respective strains.
This test permits comparisons to be made between bacterial growth in the presence of antibiotic alone and bacterial growth in the presence of both an antibiotic and a novel (test) compound.

M. catarrhalis BRO-1 = assay: Synergy MIC, inhibitor at 4 μg/mL (Example 3); assay type: cell-based, Moraxella catarrhalis; conditions: BRO-1 β-lactamases of M. catarrhalis
Description: as §1, §2, §3, §4, §5

AmpC = AmpC (Enterobacter cloacae, UniProt P05364); assay type: biochemical, Enterobacter Cloaca; conditions: Class C β-lactamase; 10 min pre-incubation at 37° C., nitrocefin
AmpC, sequence (P05364 21-381): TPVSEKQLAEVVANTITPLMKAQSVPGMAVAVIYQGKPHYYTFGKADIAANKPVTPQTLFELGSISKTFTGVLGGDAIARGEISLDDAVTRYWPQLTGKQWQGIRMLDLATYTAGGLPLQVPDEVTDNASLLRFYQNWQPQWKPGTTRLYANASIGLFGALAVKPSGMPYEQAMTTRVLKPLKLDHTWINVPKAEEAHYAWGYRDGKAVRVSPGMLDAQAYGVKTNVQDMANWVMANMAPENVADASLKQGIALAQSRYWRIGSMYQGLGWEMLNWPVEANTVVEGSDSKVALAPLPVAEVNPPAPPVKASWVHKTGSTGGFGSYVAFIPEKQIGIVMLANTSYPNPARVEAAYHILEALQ
Description: as §6, §7, §8

[2] = tested on: Class C β-lactamase (AmpC) producing strains; assay: Synergy MIC, Class C strains of Example 4; assay type: cell-based; conditions: all combinations used
Description: as §4
(§9) Following procedures identical to those described in Example 3, representative compound of Formula (I) was tested for its ability to enhance antibiotic efficacy against Class C β-lactamase positive bacterial strains that are highly resistant to β-lactam antibiotics. Class C enzymes included AmpC β-lactamases of Enterobacter Cloacae and Citrobacter freundii.

E. cloacae AmpC = assay: Synergy MIC, inhibitor at 4 μg/mL (Example 4); assay type: cell-based, Enterobacter Cloacae; conditions: class C, inhibitor constant 4 μg/mL
Description: as §4, §9

E. coli SHV-3 [3] = assay: Synergy MIC, inhibitor at 4 μg/mL (Example 4); assay type: cell-based; conditions: SHV-3, class A, inhibitor constant 4 μg/mL
E. coli TEM-1 [4] = assay type: cell-based; conditions: TEM-1, class A, inhibitor constant 4 μg/mL
C. freundii AmpC = assay: Synergy MIC, inhibitor at 4 μg/mL (Example 4); assay type: cell-based, Citrobacter freundii; conditions: class C, inhibitor constant 4 μg/mL
Description: as §4, §9

E. coli SHV-5 = assay: Synergy MIC, inhibitor at 4 μg/mL (Example 4); assay type: cell-based; conditions: SHV-5, class A, inhibitor constant 4 μg/mL
K. pneumoniae SHV-18 = assay: Synergy MIC, inhibitor at 4 μg/mL (Example 4); assay type: cell-based; conditions: SHV-18, class A, inhibitor constant 4 μg/mL
E. coli TEM-2 = assay type: cell-based; conditions: TEM-2, class A, inhibitor constant 4 μg/mL
[5] = tested on: Klebsiella oxytoca ATCC 51983; assay: MIC broth microdilution (Example 2); conditions: ATCC51983
[6] = tested on: Klebsiella pneumoniae ATCC 700603; assay: MIC broth microdilution (Example 2); conditions: Klebsiella pneumoniae ATCC 700603 producing SHV-18
C. freundii SHV-5 [7] = assay: Synergy MIC, inhibitor at 4 μg/mL (Example 4); assay type: cell-based; conditions: SHV-5, class A, inhibitor constant 4 μg/mL
C. freundii SHV-5 [8] = assay: Synergy MIC, inhibitor at 4 μg/mL (Example 3); assay type: cell-based; conditions: β-lactamase SHV-5 (Table 3 r10), inhibitor constant 4 μg/mL
Description: as §1, §2, §3, §4, §5

K. oxytoca ESBL = assay: Synergy MIC, inhibitor at 4 μg/mL (Example 3); assay type: cell-based; conditions: ESBL (Table 3 r26), inhibitor constant 4 μg/mL
Description: as §1, §2, §3, §4, §5

E. coli SHV-3 [9] = assay: Synergy MIC, inhibitor at 4 μg/mL (Example 3); assay type: cell-based; conditions: β-lactamase SHV-3 (Table 3 r9), inhibitor constant 4 μg/mL
Description: as §1, §2, §3, §4, §5

E. cloacae SHV-12 = assay: Synergy MIC, inhibitor at 4 μg/mL (Example 3); assay type: cell-based; conditions: β-lactamase SHV-12 (Table 3 r11), inhibitor constant 4 μg/mL
Description: as §1, §2, §3, §4, §5

E. coli ESBL = assay: Synergy MIC, inhibitor at 4 μg/mL (Example 3); assay type: cell-based; conditions: first listed (Table 3 r21), inhibitor constant 4 μg/mL
Description: as §1, §2, §3, §4, §5

M. catarrhalis BRO-2 = assay: Synergy MIC, inhibitor at 4 μg/mL (Example 3); assay type: cell-based, Moraxella catarrhalis; conditions: β-lactamase BRO-2 (Table 3 r18), inhibitor constant 4 μg/mL
Description: as §1, §2, §3, §4, §5

E. coli TEM-1 [10] = assay type: cell-based; conditions: β-lactamase TEM-1, first listed (Table 3 r14), inhibitor constant 4 μg/mL
Description: as §1, §2, §3, §4, §5

E. coli TEM-3 = assay type: cell-based; conditions: β-lactamase TEM-3 (Table 3 r16), inhibitor constant 4 μg/mL
Description: as §1, §2, §3, §4, §5

MIC (E. cloacae AmpC; first listed) [µg/mL] | MIC (E. cloacae AmpC; second listed) [µg/mL] | MIC (E. cloacae AmpC; third listed) [µg/mL] | MIC (E. coli SHV-3 [3]) [µg/mL] | MIC (E. coli TEM-1 [4]) [µg/mL] | MIC (C. freundii AmpC) [µg/mL] | MIC (E. coli SHV-5) [µg/mL] | MIC (K. pneumoniae SHV-18) [µg/mL] | MIC (E. coli TEM-2) | Structure (SMILES) | other results
– | – | – | – | – | – | – | – | – | C/C=C1/C(=O)N2C(C(=O)O)=C3[C@@H](OC)CCC[C@@H]3[C@H]12 [Compound 1a, (4S,8S,9R)-4-methoxy-10-((E)-ethylidene)-11-oxo-1-azatricyclo[7.2.0.0^3,8]undec-2-ene-2-carboxylic acid] | activity compared with other β-lactamase inhibitors (S. aureus PC): more active than the other tested β-lactamase inhibitors; pIC50 (SHV-1): 6.82; pIC50 (TEM-1): 7.26; antibiotic activity per se [1]: did not display antibiotic activity per se; activity compared with other β-lactamase inhibitors (M. catarrhalis BRO-1): more active than the other tested β-lactamase inhibitors; pIC50 (AmpC): 7.21; activity compared with tazobactam [2]: superior to tazobactam
6.4 | 3.2 | 3.2 | 0.8 | 25.6 (≈ 49.7 µM) | 1.6 | > 25.6 | 0.8 | ≦0.025 | CO/N=C(\C(=O)N[C@@H]1C(=O)N2C(C(=O)[O-])=C(C[n+]3cccc4c3CCC4)CS[C@H]12)c1csc(N)n1 [Cefpirome, cefpirome] | –
> 25.6 | > 25.6 | > 25.6 | 3.2 | > 25.6 | > 25.6 | > 25.6 | 6.4 | ≦0.025 | CO/N=C(\C(=O)N[C@@H]1C(=O)N2C(C(=O)O)=C(CSc3nc(=O)c(=O)[nH]n3C)CS[C@H]12)c1csc(N)n1 [ceftriaxone] | MIC [5]: 2 to 8 µg/mL (≈ 3.61 to 14.4 µM); susceptibility of the strain to the antibiotic [6]: susceptible; MIC (C. freundii SHV-5 [7]): 25.6 µg/mL
– | – | – | – | – | – | – | – | – | CCN1CCN(C(=O)N[C@@H](C(=O)N[C@@H]2C(=O)N3[C@@H]2SC(C)(C)[C@@H]3C(=O)O)c2ccccc2)C(=O)C1=O [PIP, piperacillin] | MIC (C. freundii SHV-5 [8]): > 25.6 µg/mL; MIC (K. oxytoca ESBL): 3.2 µg/mL; MIC (E. coli SHV-3 [9]): > 25.6 µg/mL; MIC (E. cloacae SHV-12): > 25.6 µg/mL; MIC (E. coli ESBL): 0.8 µg/mL; MIC (M. catarrhalis BRO-2): 1.6 µg/mL; MIC (E. coli TEM-1 [10]): > 25.6 µg/mL; MIC (E. coli TEM-3): > 25.6 µg/mL
25.6 | > 25.6 | 12.8 | 0.4 | 12.8 (≈ 29.4 µM) | > 25.6 | > 25.6 | > 25.6 | 0.1 µg/mL (≈ 0.23 µM) | C[C@H]1[C@H](NC(=O)/C(=N\OC(C)(C)C(=O)O)c2csc(N)n2)C(=O)N1S(=O)(=O)O [Aztreonam, aztreonam] | –
